Results taken from PubChem BioAssay (NCI).
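A five-concentration, 48-hour dose response in 96-well plates underlies each endpoint, interpolated linearly between surrounding concentrations. TGI denotes the concentration required for complete inhibition of growth.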

Columns and labels:
Assay in all cases: NCI tumour cell line growth inhibition, 48 h
[1] = system: TK-10 renal
[2] = system: HCT-15 colon
[3] = system: SK-MEL-2 melanoma
[4] = system: M14 melanoma
[5] = system: MDA-N
[6] = system: HOP-62 NSCLC
[7] = system: SK-OV-3 ovarian
[8] = system: SF-295 CNS
[9] = system: SNB-19 CNS
[10] = system: CAKI-1 renal
[11] = system: MCF7 breast
[12] = system: SF-268 CNS
[13] = system: HCT-116 colon
[14] = system: PC-3 prostate
[15] = system: NCI-H460 lung
[16] = system: UACC-62 melanoma
[17] = system: DU-145 prostate
[18] = system: NCI-H23 lung
[19] = system: EKVX NSCLC
[20] = system: IGROV1 ovarian
[21] = system: SW-620 colon
[22] = system: COLO 205 colon
[23] = system: CCRF-CEM leukemia
[24] = system: UACC-257 melanoma
[25] = system: SN12C renal
[26] = system: OVCAR-5 ovarian
[27] = system: HCC-2998 colon
[28] = system: T-47D breast
[29] = system: HOP-92 NSCLC
[30] = system: SK-MEL-5 melanoma
[31] = system: HL-60(TB) leukemia
[32] = system: SF-539 CNS
[33] = system: ACHN renal
[34] = system: A498 renal
[35] = system: RXF 393 renal
[36] = system: HT29 colon
[37] = system: SK-MEL-28 melanoma
[38] = system: NCI/ADR-RES ovarian
[39] = system: RPMI-8226 leukemia
[40] = system: 786-0 renal
[41] = system: UO-31 renal
[42] = system: KM12 colon
[43] = system: MDA-MB-231 breast
[44] = system: MOLT-4 leukemia
[45] = system: HS 578T breast
[46] = system: U251 CNS
[47] = system: NCI-H226 lung
[48] = system: NCI-H522 lung
[49] = system: SR leukemia
[50] = system: MALME-3M melanoma
[51] = system: OVCAR-8 ovarian
[52] = system: OVCAR-4 ovarian
[53] = system: BT-549 breast
[54] = system: A549 NSCLC
[55] = system: K-562 leukemia
[56] = system: SNB-75 CNS
[57] = system: OVCAR-3 ovarian
[58] = system: MDA-MB-435

Clc1c2ncccc2cc2n[nH]nc12
TGI [1]: > 100 µM
TGI [2]: > 100 µM
TGI [3]: > 100 µM
TGI [4]: > 100 µM
TGI [5]: > 100 µM
TGI [6]: > 100 µM
TGI [7]: > 100 µM
TGI [8]: > 100 µM
TGI [9]: > 100 µM
TGI [10]: > 100 µM
TGI [11]: > 100 µM
TGI [12]: > 100 µM
TGI [13]: > 100 µM
TGI [14]: > 100 µM
TGI [15]: > 100 µM
TGI [16]: > 100 µM
TGI [17]: > 100 µM
TGI [18]: > 100 µM
TGI [19]: > 100 µM
TGI [20]: > 100 µM
TGI [21]: > 100 µM
TGI [22]: > 100 µM
TGI [23]: > 100 µM
TGI [24]: > 100 µM
TGI [25]: > 100 µM
TGI [26]: > 100 µM
TGI [27]: > 100 µM
TGI [28]: > 100 µM
TGI [29]: > 100 µM
TGI [30]: > 100 µM
TGI [31]: > 100 µM
TGI [32]: > 100 µM
TGI [33]: > 100 µM
TGI [34]: > 100 µM
TGI [35]: > 100 µM
TGI [36]: > 100 µM
TGI [37]: > 100 µM
TGI [38]: > 100 µM
TGI [39]: > 100 µM
TGI [40]: > 100 µM
TGI [41]: > 100 µM
TGI [42]: > 100 µM
TGI [43]: > 100 µM
TGI [44]: 77.1 µM
TGI [45]: > 100 µM
TGI [46]: > 100 µM
TGI [47]: > 100 µM
TGI [48]: > 100 µM
TGI [49]: > 100 µM
TGI [50]: > 100 µM
TGI [51]: > 100 µM
TGI [52]: > 100 µM
TGI [53]: > 100 µM
TGI [54]: > 100 µM
TGI [55]: > 100 µM
TGI [56]: > 100 µM
TGI [57]: > 100 µM
TGI [58]: > 100 µM
